Patent US9079913B2, “Spiro-oxindole MDM2 antagonists” (The Regents of the University of Michigan, priority 2009, dated 2015)
Where two headings read alike, the source gives them in different places.

Columns and labels:
[1] = target: recombinant human His-tagged MDM2 protein (residues 1-118) (Homo sapiens (Human), UniProt Q00987); assay: Fluorescence-polarization MDM2 binding assay;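 further: fluorescence polarization read after three hours of incubation in potassium phosphate buffer containing bovine gamma globulin and Triton X-100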
[2] = tested on: Isogenic HCT-116 colon cancer cell lines; assay: cells; type: cell-based;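 further: cells grown in 96-well plates in McCoy's 5A medium with 10% FBS, exposed to compound for 4 days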
Experimental: Cells were seeded in 96-well flat bottom cell culture plates at a density of 2−3×10^3 cells/well with compounds and incubated for 4 days.

[3] = tested on: cancer cell lines with wild-type p53 / mutated or deleted p53 (ATCC); assay: Cell growth assay (WST-8), other cancer cell lines; type: cell-based
[4] = Table 19B, read-out: Binding affinities to MDM2 protein as determined by FP based assay IC50
[5] = Homo sapiens, HCT-116, read-out: Inhibition of cell growth IC50, HCT116 p53 KO, Table 19B, HCT116 p53 KO
[6] = Homo sapiens, HCT-116, read-out: Inhibition of cell growth IC50, HCT116 p53 WT, Table 19B, HCT116 p53 WT
[7] = read-out: Inhibition of cell growth IC50, HCT116 p53 KO, Table 19B, HCT116 p53 KO
[8] = read-out: Inhibition of cell growth IC50, HCT116 p53 WT, Table 19B, HCT116 p53 WT
[9] = Homo sapiens, LNCaP, Table 19B, LNCaP cells, read-out: Inhibition of cell growth IC50, LNCaP
[10] = Homo sapiens, PC-3, Table 19B, PC3 cells, read-out: Inhibition of cell growth IC50, PC3
[11] = Table 19B, LNCaP cells, read-out: Inhibition of cell growth IC50, LNCaP
[12] = Table 19B, PC3 cells, read-out: Inhibition of cell growth IC50, PC3
[13] = Table 19A, FP binding assay, read-out: MDM2 IC50
[14] = Homo sapiens, HCT-116, read-out: HCT-116 (p53 wild-type) IC50, Table 19A, HCT-116 p53 wild-type, cell growth
[15] = Homo sapiens, LNCaP, Table 19A, LNCAP cells, p53 wild-type, cell growth, read-out: LNCAP (p53 wild-type) IC50
[16] = Homo sapiens, SJSA-1, Table 19A, SJSA-1 cells, p53 wild-type, cell growth, read-out: SJSA-1 (p53 wild-type) IC50
[17] = Homo sapiens, HCT-116, read-out: HCT-116 (p53-/-) IC50, Table 19A, HCT-116 p53-/-, cell growth
[18] = Homo sapiens, PC-3, Table 19A, PC-3 cells, deleted p53, cell growth, read-out: PC-3 (deleted p53) IC50
[19] = Table 19D, read-out: MDM2 Binding Affinities IC50
[20] = Homo sapiens, HCT-116, read-out: HCT116p53KO IC50, Table 19D, HCT116 p53KO
[21] = Homo sapiens, HCT-116, read-out: HCT116p53WT IC50, Table 19D, HCT116 p53WT
[22] = Homo sapiens, LNCaP, Table 19D, LNCaP cells, read-out: LNCaP IC50
[23] = Homo sapiens, PC-3, Table 19D, PC3 cells, read-out: PC3 IC50

Chain of recombinant human His-tagged MDM2 protein (residues 1-118) (Q00987 1-118): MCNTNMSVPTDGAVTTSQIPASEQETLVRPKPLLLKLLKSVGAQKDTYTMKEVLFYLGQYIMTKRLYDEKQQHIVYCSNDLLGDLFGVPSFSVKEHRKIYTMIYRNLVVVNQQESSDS

With `CC(C)CC(C)(C)C[C@H]1N(C)[C@@H](C(=O)NCC[C@H](O)CO)[C@H](c2cccc(Cl)c2)[C@@]12C(=O)Nc1cc(F)c(F)cc12` [MI-737] the IC50 [1, 4] was > 1 µM, the IC50 [2, 5] was 24.4 µM and the IC50 [2, 6] was 5 µM. It also gave an IC50 [2, 7] of 15 µM, an IC50 [2, 8] of 4.5 µM and an IC50 [3, 9] of 3.53 µM. The IC50 [3, 10] was 11.3 µM, the IC50 [3, 11] was 3.73 µM and the IC50 [3, 12] was 11.6 µM.
For `CC(C)(C)C[C@H]1N[C@@H](C(=O)NC2CCN(CCF)CC2)[C@H](c2cccc(Cl)c2F)[C@@]12C(=O)Nc1cc(Cl)ccc12` [MI-519-56], the IC50 [1, 13] was < 1 µM, the IC50 [2, 14] was < 1 µM and the IC50 [3, 15] was > 10 µM. For the same molecule, the IC50 [3, 16] was < 1 µM.
In the case of `CC(C)(C)C[C@H]1N[C@@H](C(=O)NCCN2CCN(C(=O)CO)CC2)[C@H](c2cccc(Cl)c2)[C@@]12C(=O)Nc1cc(Cl)c(F)cc12` [MI-319-33], the IC50 ([1]; Table 19C, read-out: Bidning affinities to MDM2 as determined using FP assay IC50) is reported as < 1 µM, the IC50 ([2]; Homo sapiens, HCT-116, read-out: Cell growth inhibition using WST assay, HCT116 p53KO IC50, Table 19C, HCT116 p53KO) is reported as 25.3 ± 2.8 µM and the IC50 ([2]; Homo sapiens, HCT-116, read-out: Cell growth inhibition using WST assay, HCT116 p53WT IC50, Table 19C, HCT116 p53WT) is reported as 2.1 ± 0.2 µM. It also gave an IC50 ([3]; Homo sapiens, LNCaP, Table 19C, LNCaP cells, read-out: Cell growth inhibition using WST assay, LNCaP IC50) of 1.4 ± 0.2 µM and an IC50 ([3]; Homo sapiens, PC-3, Table 19C, PC3 cells, read-out: Cell growth inhibition using WST assay, PC3 IC50) of 23.6 ± 5.5 µM.
In the case of `CC(C)(C)C[C@H]1N[C@@H](C(=O)NCC2CC(O)C(O)C2)[C@H](c2cccc(Cl)c2)[C@@]12C(=O)Nc1cc(Cl)c(F)cc12` (some centres unmarked) [MI-519-36], the IC50 [1, 13] is reported as < 1 µM, the IC50 [2, 17] is reported as 29.8 ± 6.5 µM and the IC50 [2, 14] is reported as 1.2 ± 0.6 µM. For the same molecule, the IC50 [3, 15] was 0.9 ± 0.1 µM and the IC50 [3, 18] was 20.6 ± 5.3 µM.
With `O=C(NCC[C@H](O)CO)[C@@H]1N[C@H](CCc2ccco2)[C@]2(C(=O)Nc3cc(Cl)c(F)cc32)[C@H]1c1cccc(Cl)c1` [MI-715B] the IC50 [1, 4] was < 5 µM, the IC50 [2, 5] was > 10 µM and the IC50 [2, 6] was 2.7 ± 1 µM. The IC50 [3, 9] was 3 ± 0.7 µM and the IC50 [3, 10] was > 10 µM.
With `O=C(NCC[C@H](O)CO)[C@@H]1N[C@H](CC2CCCCC2)[C@]2(C(=O)Nc3cc(Cl)c(F)cc32)[C@H]1c1cccc(Cl)c1` [MI-716B] the IC50 [1, 4] was < 1 µM, the IC50 [2, 7] was 11.5 ± 0.7 µM and the IC50 [2, 8] was 0.6 ± 0.2 µM. The IC50 [3, 11] was 0.86 ± 0.3 µM and the IC50 [3, 12] was 9 ± 2.8 µM.
`CC(C)[C@@H](N)C(=O)OC1CCC(NC(=O)[C@@H]2N[C@H](CC(C)(C)C)[C@]3(C(=O)Nc4cc(Cl)ccc43)[C@H]2c2cccc(Cl)c2F)CC1` (some centres unmarked) [MI-905] was tested, and the IC50 [1, 13] was < 1 µM, the IC50 [2, 17] was 8 µM and the IC50 [2, 14] was < 3 µM. For the same molecule, the IC50 [3, 15] was < 3 µM, the IC50 [3, 18] was 3.9 µM and the IC50 [3, 16] was < 3 µM.
With `CCC[C@H]1N[C@@H](C(=O)NCC[C@H](O)CO)[C@H](c2cccc(Cl)c2)[C@@]12C(=O)Nc1cc(Cl)c(F)cc12` [MI-702] the IC50 [1, 4] was > 1 µM, the IC50 [2, 5] was 12.7 ± 2.3 µM and the IC50 [2, 6] was 5.8 ± 1.7 µM. It also gave an IC50 [3, 9] of 1.9 ± 0.3 µM and an IC50 [3, 10] of 14.3 ± 2.9 µM.
For `CC(C)(C)C[C@H]1N[C@@H](C(=O)N[C@H]2CC[C@@H](N)C2)[C@H](c2cccc(Cl)c2F)[C@@]12C(=O)Nc1cc(Cl)ccc12` [MI-519-55], the IC50 [1, 19] was < 1 µM, the IC50 [2, 20] was > 5 µM and the IC50 [2, 21] was < 2 µM. The IC50 [3, 22] was < 2 µM, the IC50 [3, 23] was > 3 µM and the IC50 ([3]; Homo sapiens, Table 19D, SJSA-1 cells, unit inferred, read-out: SJSA-1) was < 3 µM.
With `CC(C)(C)C[C@H]1N[C@@H](C(=O)NCCC2CCC(O)C2)[C@H](c2cccc(Cl)c2)[C@@]12C(=O)Nc1cc(F)c(F)cc12` (some centres unmarked) [MI-519-25] the IC50 [1, 19] was < 3 µM, the IC50 [2, 20] was > 10 µM and the IC50 [2, 21] was < 3 µM. For the same molecule, the IC50 [3, 22] was < 5 µM and the IC50 [3, 23] was > 10 µM.
In the case of `CC(C)(C)C[C@H]1N[C@@H](C(=O)NCC[C@H](O)CO)[C@H](c2cccc(Cl)c2)[C@@]12C(=O)Nc1cc(F)ccc12` [MI-519-15], the IC50 [1, 19] is reported as < 1 µM, the IC50 [2, 20] is reported as > 10 µM and the IC50 [2, 21] is reported as < 3 µM. The IC50 [3, 22] was < 5 µM and the IC50 [3, 23] was > 10 µM.
In the case of `CC(C)(C)C[C@H]1N[C@@H](C(=O)N2CCN(C(=O)C3CC3)CC2)[C@H](c2cccc(Cl)c2)[C@@]12C(=O)N(C(=O)C1CC1)c1cc(Cl)c(F)cc12` [MI-743B], the IC50 [1, 4] is reported as > 100 µM, the IC50 [2, 5] is reported as > 1 µM and the IC50 [2, 6] is reported as > 1 µM. The IC50 [3, 9] was > 1 µM and the IC50 [3, 10] was > 1 µM.
